Data as given in ChEMBL document CHEMBL6083242, “Design and optimization of novel Tetrahydro-β-carboline-based HDAC inhibitors with potent activities against tumor cell growth and metastasis” (Bioorg Med Chem Lett, 2024).
Activity calls are given as the source filed them. The calls are words filed in the database; no cut-off is given here.

Experiments:
A549 [1] = test: Induction of apoptosis in human A549 cells at 5 uM incubated for 72 hrs by Annexin V/PI staining based flow cytometry analysis relative to control; assay type: functional
A549 [2] = test: Antiproliferative activity against human A549 cells assessed as inhibition of cell proliferation
HeLa = test: Antiproliferative activity against human HeLa cells assessed as inhibition of cell proliferation
MDA-MB-231 = test: Antiproliferative activity against human MDA-MB-231 cells assessed as inhibition of cell proliferation
MCF7 = test: Antiproliferative activity against human MCF7 cells assessed as inhibition of cell proliferation
A549 [3] = test: Induction of apoptosis in human A549 cells assessed as upregulation of Bax expression incubated for 24 hrs by Western blot analysis; assay type: functional, cell-based; settings: dose 0.5-5 µM
A549 [4] = test: Induction of apoptosis in human A549 cells assessed as induction of gammaH2AX expression at 0.5 uM incubated for 24 hrs by immunofluorescence analysis; assay type: functional, cell-based
A549 [5] = test: Induction of apoptosis in human A549 cells assessed as downregulation of Bcl-2 expression incubated for 24 hrs by Western blot analysis; assay type: functional, cell-based; settings: dose 0.5-5 µM
A549 [6] = test: Induction of apoptosis in human A549 cells at 0.5 to 5 uM incubated for 72 hrs by Annexin V/PI staining based flow cytometry analysis (reference value: 17.35%); assay type: functional; settings: dose 0.5-5 µM
A549 [7] = test: Induction of apoptosis in human A549 cells assessed as upregulation of PARP expression incubated for 24 hrs by Western blot analysis; assay type: functional, cell-based; settings: dose 0.5-5 µM
A549 [8] = test: Antimetastatic activity in human A549 cells assessed as reduction in cell migration incubated for 24 hrs by wound healing assay; assay type: functional, cell-based; settings: dose 0.5-5 µM
A549 [9] = test: Induction of apoptosis in human A549 cells assessed as upregulation of cleaved caspase 3 expression incubated for 24 hrs by Western blot analysis; assay type: functional, cell-based; settings: dose 0.5-5 µM
A549 [10] = test: Induction of cell cycle arrest in human A549 cells assessed as accumulation of cells in G2/M phase by measuring CDK1 level incubated for 24 hrs by Western blotting analysis; assay type: functional, cell-based; settings: dose 0.5-5 µM
A549 [11] = test: Induction of cell cycle arrest in human A549 cells assessed as accumulation of cells at G2/M phase incubated for 24 hrs by flow cytometry analysis; assay type: functional, cell-based; settings: dose 0.5-5 µM
A549 [12] = test: Induction of apoptosis in human A549 cells incubated for 72 hrs by Annexin V/PI staining based flow cytometry analysis; assay type: functional, cell-based; settings: dose 0.5-5 µM
A549 [13] = test: Induction of apoptosis in human A549 cells assessed as increase in ROS level incubated for 24 hrs by DCFH-DA staining based fluorescence analysis; assay type: functional, cell-based; settings: dose 0.5-5 µM
A549 [14] = test: Induction of apoptosis in human A549 cells assessed as gammaH2AX foci formation incubated for 24 hrs by immunofluorescence analysis; assay type: functional, cell-based; settings: dose 0.5-5 µM
A549 [15] = test: Induction of cell cycle arrest in human A549 cells assessed as accumulation of cells in G2/M phase by measuring cyclin B1 level incubated for 24 hrs by Western blotting analysis; assay type: functional, cell-based; settings: dose 0.5-5 µM

Row | IC50 (A549 [2]) | IC50 (HeLa) | IC50 (MDA-MB-231) | IC50 (MCF7) | SMILES | Activity (A549 [1]) | also measured
1 | – | – | – | – | O=C(CCCCCCC(=O)Nc1ccccc1)NO [VORINOSTAT] | 34.83% | –
2 | 4.15 µM | 6.05 µM | 1.69 µM | 3.04 µM | CC(C)Cn1c2c(c3ccccc31)CCN(C(=O)CCCCCCC(=O)NO)C2 | – | –
3 | 2.29 µM | 0.43 µM | 196 µM | 1.84 µM | O=C(CCCCCCC(=O)N1CCc2c([nH]c3ccccc23)C1)NO | – | –
4 | 1.09 µM | 6.09 µM | 6.74 µM | 5.67 µM | CC(=O)N1CCc2c(n(CCCCCCC(=O)NO)c3ccccc23)C1 | 43.95% | Activity (A549 [3]): Dose-dependent-effect; Activity (A549 [4]): Active; Activity (A549 [5]): Dose-dependent-effect; Activity (A549 [6]): 24.17%; Activity (A549 [7]): Dose-dependent-effect; Activity (A549 [8]): Dose-dependent-effect; Activity (A549 [9]): Dose-dependent-effect; Activity (A549 [10]): Dose-dependent-effect; Activity (A549 [11]): Dose-dependent-effect; Activity (A549 [12]): Dose-dependent-effect; Activity (A549 [13]): Dose-dependent-effect; Activity (A549 [14]): Dose-dependent-effect; Activity (A549 [15]): Dose-dependent-effect
5 | 2.69 µM | 184 µM | 2.1 µM | 1.21 µM | O=C(CCCCCCC(=O)N1CCc2c(n(CC3CC3)c3ccccc23)C1)NO | – | –
